Reference: ChEMBL document CHEMBL1124625, “Flavones. 2. Synthesis and structure-activity relationship of flavodilol and its analogues, a novel class of antihypertensive agents with catecholamine depleting properties” (J Med Chem, 1989)

Columns and labels:
Rattus norvegicus [1] = assay: Systolic blood pressure (SBP) in anesthetized spontaneously hypertensive rats(SHR) at 7.5 hours after administration of 35 mg/kg dose perorally; type: functional; conditions: route oral
Adrenergic receptor beta = Adrenergic receptor beta (Rattus norvegicus, UniProt P18090+P10608+P26255)
Description: Inhibition constant from beta adrenergic receptor binding assay

Rattus norvegicus [2] = assay: % decrease in hypothalamus norepinephrine in anesthetized spontaneously hypertensive rats(SHR) at 5 hours after administration of 75 mg/kg dose perorally; type: functional; conditions: route oral
Rattus norvegicus [3] = assay: Systolic blood pressure (SBP) in anesthetized spontaneously hypertensive rats(SHR) before administration of 17 mg/kg dose, perorally; type: functional; conditions: route oral
Rattus norvegicus [4] = assay: Systolic blood pressure (SBP) in anesthetized spontaneously hypertensive rats (SHR) before administration of 75 mg/kg dose perorally.; type: functional; parameters: unit: mmHg; conditions: route oral
Rattus norvegicus [5] = assay: % decrease in systolic blood pressure (SBP) in anesthetized spontaneously hypertensive rats(SHR) after administration of 8 mg/kg dose perorally; conditions: route oral
Rattus norvegicus [6] = assay: % decrease in hypothalamus norepinephrine in anesthetized spontaneously hypertensive rats(SHR) at 5 hours after administration of 8 mg/kg dose perorally; type: functional; conditions: route oral
Rattus norvegicus [7] = assay: % decrease in heart norepinephrine in anesthetized spontaneously hypertensive rats(SHR) at 5 hours after administration of 8 mg/kg dose perorally; type: functional; conditions: route oral
Rattus norvegicus [8] = assay: % decrease in hypothalamus DA in anesthetized spontaneously hypertensive rats(SHR) at 5 hours after administration of 35 mg/kg dose perorally; conditions: route oral
Rattus norvegicus [9] = assay: % decrease in heart 5-HT in anesthetized spontaneously hypertensive rats(SHR) at 5 hours after administration of 35 mg/kg dose perorally; value significantly different was control; type: functional; conditions: route oral
Rattus norvegicus [10] = assay: % decrease in systolic blood pressure (SBP) in anesthetized spontaneously hypertensive rats(SHR) after administration of 75 mg/kg dose perorally; conditions: route oral
Rattus norvegicus [11] = assay: % decrease in heart 5-HT in anesthetized spontaneously hypertensive rats(SHR) at 5 hours after administration of 17.5 mg/kg dose perorally; value significantly different was control; type: functional; conditions: route oral
Rattus norvegicus [12] = assay: % decrease in heart norepinephrine in anesthetized spontaneously hypertensive rats(SHR) at 5 hours after administration of 75 mg/kg dose perorally; type: functional; conditions: route oral
Rattus norvegicus [13] = assay: % decrease in systolic blood pressure (SBP) in anesthetized spontaneously hypertensive rats(SHR) after administration of 4 mg/kg dose perorally; conditions: route oral
Rattus norvegicus [14] = assay: % decrease in hypothalamus dopamine in anesthetized spontaneously hypertensive rats(SHR) at 5 hours after administration of 17.5 mg/kg dose perorally; type: functional; conditions: route oral
Rattus norvegicus [15] = assay: Systolic blood pressure (SBP) in anesthetized spontaneously hypertensive rats(SHR) at 7.5 hours after administration of 17 mg/kg dose, perorally; type: functional; conditions: route oral
Rattus norvegicus [16] = assay: % decrease in heart 5-HT in anesthetized spontaneously hypertensive rats(SHR) at 5 hours after administration of 4 mg/kg dose perorally; type: functional; conditions: route oral
Rattus norvegicus [17] = assay: % decrease in hypothalamus dopamine in anesthetized spontaneously hypertensive rats(SHR) at 5 hours after administration of 8 mg/kg dose perorally; type: functional; conditions: route oral
Rattus norvegicus [18] = assay: % decrease in heart 5-HT in anesthetized spontaneously hypertensive rats(SHR) at 5 hours after administration of 8 mg/kg dose perorally; type: functional; conditions: route oral
Rattus norvegicus [19] = assay: Systolic blood pressure (SBP) in anesthetized spontaneously hypertensive rats(SHR) at 7.5 hours after administration of 75 mg/kg dose perorally; conditions: route oral
Rattus norvegicus [20] = assay: % decrease in hypothalamus dopamine in anesthetized spontaneously hypertensive rats(SHR) at 5 hours after administration of 4 mg/kg dose perorally; type: functional; conditions: route oral
Rattus norvegicus [21] = assay: % decrease in hypothalamus dopamine in anesthetized spontaneously hypertensive rats(SHR) at 5 hours after administration of 75 mg/kg dose perorally; type: functional; conditions: route oral
Rattus norvegicus [22] = assay: % decrease in heart 5-HT in anesthetized spontaneously hypertensive rats(SHR) at 5 hours after administration of 75 mg/kg dose perorally; value significantly different was control; type: functional; conditions: route oral
Rattus norvegicus [23] = assay: Systolic blood pressure (SBP) in anesthetized spontaneously hypertensive rats(SHR) before administration of 35 mg/kg dose perorally; type: functional; conditions: route oral
Rattus norvegicus [24] = assay: % decrease in hypothalamus norepinephrine in anesthetized spontaneously hypertensive rats(SHR) at 5 hours after administration of 17.5 mg/kg dose perorally; type: functional; conditions: route oral
Rattus norvegicus [25] = assay: % decrease in heart norepinephrine in anesthetized spontaneously hypertensive rats(SHR) at 5 hours after administration of 4 mg/kg dose perorally; type: functional; conditions: route oral
Rattus norvegicus [26] = assay: % decrease in heart norepinephrine in anesthetized spontaneously hypertensive rats(SHR) at 5 hours after administration of 17.5 mg/kg dose perorally; type: functional; conditions: route oral
Rattus norvegicus [27] = assay: % decrease in hypothalamus norepinephrine in anesthetized spontaneously hypertensive rats(SHR) at 5 hours after administration of 35 mg/kg dose perorally; type: functional; conditions: route oral
Rattus norvegicus [28] = assay: % decrease in hypothalamus norepinephrine in anesthetized spontaneously hypertensive rats(SHR) at 5 hours after administration of 4 mg/kg dose perorally; type: functional; conditions: route oral
Rattus norvegicus [29] = assay: % decrease in systolic blood pressure (SBP) in anesthetized spontaneously hypertensive rats(SHR) after administration of 17.5 mg/kg dose perorally; data statistically significant; conditions: route oral
Rattus norvegicus [30] = assay: % decrease in heart norepinephrine in anesthetized spontaneously hypertensive rats(SHR) at 5 hours after administration of 35 mg/kg dose perorally; type: functional; conditions: route oral
Rattus norvegicus [31] = assay: Systolic blood pressure (SBP) in anesthetized spontaneously hypertensive rats(SHR) at 7.5 hours after administration of 65 mg/kg dose perorally; NS is not statistically significant.
Rattus norvegicus [32] = assay: Systolic blood pressure (SBP) in anesthetized spontaneously hypertensive rats(SHR) before administration of 65 mg/kg dose perorally; type: functional; conditions: route oral

SMILES: CCCNCC(O)COc1ccc2c(=O)cc(-c3ccccc3)oc2c1 (stereo not drawn) [FLAVODILOL]
- Decrease in Systolic blood pressure (Rattus norvegicus [1]): 27%
- Ki (Adrenergic receptor beta): 4 nM
- Decrease in hypothalamus norepinephrine (Rattus norvegicus [2]): 15%
- Systolic blood pressure (Rattus norvegicus [3]): 199
- Systolic blood pressure (Rattus norvegicus [4]): 203
- % decrease SBP (Rattus norvegicus [5]): 3%
- Decrease in hypothalamus norepinephrine (Rattus norvegicus [6]): 0%
- Decrease in heart norepinephrine (Rattus norvegicus [7]): 38%
- % decrease hypothalamus DA (Rattus norvegicus [8]): 37%
- Decrease (Rattus norvegicus [9]): 61%
- % decrease SBP (Rattus norvegicus [10]): 31%
- Decrease (Rattus norvegicus [11]): 49%
- Decrease in heart norepinephrine (Rattus norvegicus [12]): 94%
- % decrease SBP (Rattus norvegicus [13]): 7%
- Decrease (Rattus norvegicus [14]): 31%
- Decrease in Systolic blood pressure (Rattus norvegicus [15]): 15%
- Decrease (Rattus norvegicus [16]): -10%
- Decrease (Rattus norvegicus [17]): -6%
- Decrease (Rattus norvegicus [18]): 11%
- Decrease in Systolic blood pressure (Rattus norvegicus [19]): 32%
- Decrease (Rattus norvegicus [20]): 4%
- Decrease (Rattus norvegicus [21]): 38%
- Decrease (Rattus norvegicus [22]): 63%
- Systolic blood pressure (Rattus norvegicus [23]): 196
- Decrease in hypothalamus norepinephrine (Rattus norvegicus [24]): 6%
- Decrease in heart norepinephrine (Rattus norvegicus [25]): 21%
- Decrease in heart norepinephrine (Rattus norvegicus [26]): 79%
- Decrease in hypothalamus norepinephrine (Rattus norvegicus [27]): 19%
- Decrease in hypothalamus norepinephrine (Rattus norvegicus [28]): 2%
- % decrease SBP (Rattus norvegicus [29]): 6%
- Decrease in heart norepinephrine (Rattus norvegicus [30]): 89%

SMILES: CC(C)NCC(O)COc1ccc2c(=O)cc(-c3ccc(N)cc3)oc2c1 (stereo not drawn)
- Decrease in Systolic blood pressure (Rattus norvegicus [31]): Not significant
- Systolic blood pressure (Rattus norvegicus [32]): 206
